Laboratory results: patent US20220259180A1, “BROAD SPECTRUM ANTIVIRAL COMPOUNDS TARGETING THE SKI COMPLEX” (priority 2019, published 2022)
Entries after “also recorded” stand apart in the source; their conditions may differ. Like-named read-outs stand apart in the source and are kept apart here.

Tests used:
[1] = test system: Influenza virus; type: cell-based, influenza A virus NL09 strain; settings: for first experiment PFU/ml: 0.1% DMSO control 100000; for Antiviral activity against Influenza virus / Flu titer (pfu/ml): A549 cells; for Antiviral activity against Influenza virus: screening at 50 μM, 10 μM (and 1 μM); for IC50: read-out: IC50 against IAV; for Flu titer (pfu/ml): plaque assay
[2] = test system: IAV; assay: Time of addition assay, IAV in A549 cells, plaque assay; type: cell-based, influenza A virus
[3] = test system: IAV NS1 mRNA; type: cell-based, influenza A virus
[4] = test system: MERS-CoV; type: cell-based, MERS-CoV (Jordan strain); settings: Huh7 cells, MOI 0.1, 24 h; read-out: IC50 against MERS-CoV
[5] = test system: IAV RNA; assay: Multi-segment RT-PCR (M-RTPCR) of all IAV segments; type: cell-based, influenza A virus
[6] = test system: SARS-CoV-2 mRNA; type: cell-based; settings: two gene targets (N, RdRp)
[7] = test system: IAV NS1; type: cell-based, influenza A virus
[8] = test system: SARS-CoV; type: cell-based; settings: 24 h
[9] = test system: SARS-CoV-2; type: cell-based
[10] = test system: Ebola virus Makona strain (EBOV); type: cell-based; settings: Huh7 cells, 48 h; read-out: IC50 against EBOV
[11] = test system: Huh7 cells; settings: 24 h, CellTiter-Glo
[12] = test system: A549 cells; settings: 24 h, CellTiter-Glo
[13] = test system: Marburg virus Angola strain (MARV); type: cell-based; settings: Huh7 cells, 48 h; read-out: IC50 against MARV
[14] = 10 μM compound, DMSO (0.1%) control 153000
[15] = 50 μM compound, DMSO (0.5%) control 58700
[16] = 1 μm compound, DMSO (0.1%) control 153000

## COc1ccc(CNC2CCCC2)c(OCC(O)CN2CCN(C)CC2)c1 (centres unmarked) [18-1]
[1]; 10 μM screen
  first experiment PFU/ml: 60000 PFU/ml

## COc1ccc(CNCCc2ccccc2C)c(OCC(O)CN2CCN(C)CC2)c1 (centres unmarked) [18-2]
[1]; 10 μM screen
  first experiment PFU/ml: 500 PFU/ml
[1]; listed as 27092311
  Antiviral activity against Influenza virus: increased activity

## COc1ccc(CNC2Cc3ccccc3C2)c(OCC(O)CN2CCN(C)CC2)c1 (centres unmarked) [18-3]
[1]; 10 μM screen
  first experiment PFU/ml: 12000 PFU/ml

## COc1ccc(CNCCc2ccccc2Cl)c(OCC(O)CN2CCN(C)CC2)c1 (centres unmarked) [18-4]
[1]; 10 μM screen
  first experiment PFU/ml: 7000 PFU/ml

## COc1ccc(CNCC2CCCCC2)c(OCC(O)CN2CCN(C)CC2)c1 (centres unmarked) [18-5]
[1]; 10 μM screen
  first experiment PFU/ml: 60000 PFU/ml

## COc1ccc(CNCCc2ccccc2)c(OCC(O)CN2CCN(C)CC2)c1 (centres unmarked) [18-6]
[1]; 10 μM screen
  first experiment PFU/ml: 10000 PFU/ml

## COc1ccc(CNCCCn2ccnc2C)c(OCC(O)CN2CCN(C)CC2)c1 (centres unmarked) [18-7]
[1]; 10 μM screen
  first experiment PFU/ml: 240000 PFU/ml

## COc1ccc(CNC2CCCCCCC2)c(OCC(O)CN2CCN(C)CC2)c1 (centres unmarked) [18-8]
[1]; 10 μM screen
  first experiment PFU/ml: 3000 PFU/ml

## COc1ccc(CNCCc2cccnc2)c(OCC(O)CN2CCCCCCC2)c1 (centres unmarked) [18-9]
[1]; 10 μM screen
  first experiment PFU/ml: 200000 PFU/ml

## COc1ccc(CNC2CCCCC2)c(OCC(O)CN2CCN(C)CC2)c1 (centres unmarked) [18-10]
[1]; 10 μM screen
  first experiment PFU/ml: 40000 PFU/ml

## COCCCNCc1ccc(OC)cc1OCC(O)CN1CCN(C)CC1 (centres unmarked) [18-11]
[1]; 10 μM screen
  first experiment PFU/ml: 100000 PFU/ml

## COc1ccc(CNCC(F)(F)F)c(OCC(O)CN2CCN(C)CC2)c1 (centres unmarked) [18-12]
[1]; 10 μM screen
  first experiment PFU/ml: 30000 PFU/ml

## COc1ccc(CNCCCn2cccn2)c(OCC(O)CN2CCN(C)CC2)c1 (centres unmarked) [18-13]
[1]; 10 μM screen
  first experiment PFU/ml: 40000 PFU/ml

## COc1ccc(CNCCCSC)c(OCC(O)CN2CCCCCCC2)c1 (centres unmarked) [18-14]
[1]; 10 μM screen
  first experiment PFU/ml: 44000 PFU/ml

## COc1ccc(CNCCCn2ccnc2)c(OCC(O)CN2CCN(C)CC2)c1 (centres unmarked) [18-15]
[1]; compound at 10 μM, DMSO control 100000
  Influenza virus plaque assay titer, 10 μM: 36000 PFU/virus/ml

## COc1ccc(CNCCCSC)c(OCC(O)CN2CCN(C)CC2)c1 (centres unmarked) [18-16]
[1]; 10 μM screen
  first experiment PFU/ml: 210000 PFU/ml

## COc1ccc(CNCCc2ccccc2F)c(OCC(O)CN2CCN(C)CC2)c1 (centres unmarked) [18-lead, 1-[2-({[2-(2-fluorophenyl)ethyl]amino}methyl)-5-methoxyphenoxy]-3-(4-methyl-1-piperazinyl)-2-propanol]
[1]; 10 μM screen
  first experiment PFU/ml: 2000 PFU/ml
[1]; 10 μM screen, well 1, 0.1% DMSO control 23000
  1-24-20 (triplicate wells) PFU/ml: 1300 PFU/ml
[1]; 10 μM screen, well 2, 0.1% DMSO control 19000
  1-24-20 (triplicate wells) PFU/ml: 1000 PFU/ml
[1]; 10 μM screen, well 3, 0.1% DMSO control 29000
  1-24-20 (triplicate wells) PFU/ml: 4000 PFU/ml
[1]; 50 μM screen, well 1, 0.5% DMSO control 21000
  1-24-20 (triplicate wells) PFU/ml: 600 PFU/ml
[1]; 50 μM screen, well 2, 0.5% DMSO control 5300
  1-24-20 (triplicate wells) PFU/ml: 200 PFU/ml
[1]; 50 μM screen, well 3, 0.5% DMSO control 15000
  1-24-20 (triplicate wells) PFU/ml: 300 PFU/ml

## COc1ccc(CNCCc2ccccc2C)c(OCC(O)CN2CCN(C)CC2)c1 (centres unmarked) [UMB18-2]
[2]
  Inhibition of IAV, drug added 2 h after infection (+2 h): marked reduction in the level of inhibition
[3]
  NS1 mRNA: marked reduction in mRNA
[4]
  IC50: ~5 µM
[5]
  IAV RNA amplified by M-RTPCR: total loss of IAV RNA
[6]
  SARS-CoV-2 mRNA production: capable of inhibiting SARS-CoV-2 mRNA production
[1]
  IC50: ~5 µM
[7]
  NS1 protein: lack of NS1 protein
[8]; 10 μM
  Inhibition of SARS-CoV virus production: inhibition, but to a lesser extent
[8]; 50 μM
  Reduction in SARS-CoV virus production: 1 log
[9]
  Inhibition of SARS-CoV-2 virus production (TCID50): capable of inhibiting virus production; also recorded: less so

## COc1ccc(CNCCc2ccccc2F)c(OCC(O)CN2CCN(C)CC2)c1 (centres unmarked) [UMB18]
[2]
  Inhibition of IAV, drug added 2 h after infection (+2 h): marked reduction in the level of inhibition
[10]
  IC50: ~5 µM
[3]
  NS1 mRNA: marked reduction in mRNA
[11]
  Cell cytotoxicity at antiviral concentrations: minimal toxicity
[12]
  Cell cytotoxicity at antiviral concentrations: minimal toxicity
[4]
  IC50: ~5 µM
[13]
  IC50: ~16 µM
[1]
  Antiviral activity against Influenza virus: antiviral activity against influenza
  IC50: ~5 µM
[7]
  NS1 protein: lack of NS1 protein

## COc1ccc(OC)c(Cc2nnc(CCC(=O)NC3CC(C)(C)CC(C)(C)C3)o2)c1 [compound 35434810, 3-4[5-(2,5-dimethoxybenzyl)-1,3,4-oxadiazol-2-yl]-N-(3,3,5,5-tetramethylcyclohexyl)propanamide]
[1]; [14]
  Flu titer (pfu/ml): 80000 pfu/ml
[1]; [15]
  Flu titer (pfu/ml): 130000 pfu/ml
[1]; [16]
  Flu titer (pfu/ml): 80000 pfu/ml

## OCCN(Cc1nc(Cc2cccc(C(F)(F)F)c2)no1)CC12CC3CC(CC(C3)C1)C2 [compound 61121342]
[1]; [14]
  Flu titer (pfu/ml): 130000 pfu/ml
[1]; [15]
  Flu titer (pfu/ml): 50000 pfu/ml
[1]; [16]
  Flu titer (pfu/ml): 9000 pfu/ml
